Key:
[1] = ECHA (European Chemicals Agency) website; cited from earlier work
[2] = Catalytic activity of comparative products in gelling of a siloxane polymer
Method: The brown solution gave an orange oil which was tested for catalytic activity in gelling of a siloxane polymer.
A 16.13 wt % aqueous solution of Pt(IV) nitrate (2.624 g, 2.17 mmol) was added to deionised water (50 mL) and a mixture of salicylaldehyde (2.45 mL, 2.8 g, 22.8 mmol) and NaHCO3 (0.765 g, 9.12 mmol) in EtOH (15 mL) was then added. The reaction mixture gave off gas and produced an orange precipitate. Stirring was continued at room temperature for 2 hours. The reaction mixture was then filtered to give an orange precipitate and an orange solution. The precipitate was washed with water and diethylether. […] The product was tested for catalytic activity but none was found. […] The major product appeared to be Pt^IV(HCO3)4.

[3] = Catalytic activity: time until gelling of siloxane composition after 60 s UV irradiation or in the dark; conditions: for Gelling time: 60 s UV
Method: The product of Example 3 was tested for catalytic activity.
5 mg of the product was dissolved in 1 mL dichloromethane to provide a solution (‘Solution A’).
The following ingredients were added to a UV-grade plastic cuvette: • vinyl terminated polydimethyl siloxane 100 cSt DMS V21 (2g); • (45-55% methylhydrosiloxane)dimethylsiloxane copolymer 10-15 cSt HMS-501 (0.108 mL); • Solution A (25 μL).
The contents of the cuvette were stirred briefly with a spatula to ensure thorough mixing and a 10 mm magnetic flea was added, before sealing with parafilm.
The cuvette was placed in a UV-lamp box. The positioning of samples in the box was kept the same throughout testing (154 mm from ground to top of cuvette; 114 mm between end of housing and front of cuvette).
A 300 W ozone-free Xenon lamp was used (visible to 300 nm). A water-cooled filter removes some of the visible spectrum.
The stirrer speed was set to the 12 o'clock position and the lamp was switched on for 60 seconds only. The time taken from the switching on of the lamp to the stirrer no longer being able to complete a turn was noted as a measure of activity.
Results are provided in the Table below. ‘Irradiated’ indicates samples exposed to the 60 s UV radiation. ‘Dark’ indicates samples left in darkness without any irradiation.
(§1) All other aspects of the test were the same as Example 16. The results reflect gelling time after the 60 s UV irradiation.
The testing was done as in Example 16, except that in the initial step the following four solutions were prepared:
Different amounts of the respective solutions, as shown in the Tables below, were added to the cuvette but all other aspects of the test were the same as Example 16.
as §1

[4] = Qualitative solubility observations; assay type: physicochemical
Method: Stirring was continued at room temperature for 2 hours. […] The precipitate was washed with water and diethylether.
An excess of salicylaldehyde (2 mL, 2.28 g, 18.62 mmol) in EtOH (20 mL) was added and the reaction mixture was heated at 73° C. overnight.
Five different samples were studied: • 1. Vinyl-terminated polydimethylsiloxane 100 cSt • 2.

[5] = Stability in dichloromethane during crystal growth; assay type: physicochemical; conditions: dichloromethane (DCM/hexane crystal growth, one week)
Excerpt: The following different methods were attempted in order to provide suitable crystals for testing. • 1. Growth in acetone/water medium. […] Growth in DCM/hexane. This formed two distinct layers with slow mixing occurring at the interface. […] Growth in chloroform/hexane. This formed two distinct layers with slow mixing occurring at the interface. Slightly larger crystals were formed, but still too small. It took longer for the product to turn brown. • 4. Growth in chloroform: The product was dissolved in chloroform with heating, and immediately filtered before being stored in the freezer. Needle like crystals were formed • 5. Growth in chloroform/hexane in freezer. Needle like crystals were formed

[6] = Solubility in various solvents, Pt content by ICP-AES; assay type: physicochemical; conditions: 10 mg in 1 mL, room temperature, 3 h, filtered
Method: The solubility of the product of Example 3 was tested in various solvents.
In each case, 10 mg of the complex was stirred in 1 mL of each solvent at room temperature for three hours. The solvent was then filtered. One hundred fold dilutions of the samples into methoxypropanol were then carried out and Pt content was determined by ICP-AES using a Spectro Ciros Vision ICP-OES. Yttrium was employed as an internal standard at a concentration of 5 ppm.

[7] = Thermogravimetric analysis (thermal stability); assay type: physicochemical; conditions: TGA
Excerpt: (which is the boiling point for salicylaldehyde). Above this temperature the ligand is lost, leaving behind the platinum metal.

[8] = 25 μL of toluene solution, 1.77 mM
[9] = 50 μL of toluene solution, 1.77 mM
[10] = 75 μL of toluene solution, 1.77 mM
[11] = 200 μL of toluene solution, 1.77 mM
[12] = 360 μL of toluene solution, 1.77 mM

In the case of `CC1=[C-]CC=C1.[CH3-].[CH3-].[CH3-].[Pt+4]` [(MeCp)PtMe3], the Hazard classification [1] is given as “fatal if swallowed, fatal in contact with skin, very toxic to aquatic life, causes serious eye irritation, may cause an allergic skin reaction, causes skin irritation and may cause respiratory irritation”.
For `O=C([O-])O.O=C([O-])O.O=C([O-])O.O=C([O-])O.[Pt+4]` [Comparative Example 6, Pt^IV(HCO3)4], the Catalytic activity [2] was “none”.
`CC(=O)/C=C(/C)O.CC(=O)/C=C(/C)O.[Pt]` [Solution C, Pt(acac)2] showed a Gelling time ([3]; 25 μL of DCM solution, 14.4 mM) of 1234 s, a Gelling time ([3]; 50 μL of DCM solution, 14.4 mM) of 719 s and a Gelling time ([3]; 75 μL of DCM solution, 14.4 mM) of 506 s. The Gelling time ([3]; 100 μL of DCM solution, 14.4 mM) was 535 s.
For `CC(=O)/C=C(/C)O.CC(=O)/C=C(/C)O.[Pt]` [Solution E, Pt(acac)2], the Gelling time [3, 8] was 3544 s, the Gelling time [3, 9] was 1350 s and the Gelling time [3, 10] was 938 s. For the same compound, the Gelling time ([3]; 100 μL of toluene solution, 1.77 mM) was 793 s, the Gelling time [3, 11] was 551 s and the Gelling time [3, 12] was 486 s.
For Pt(sal)2 [Example 1], the “Solubility (note on sample)” value ([4]; 1 mg/mL in acetone) was “saturated solution, prone to some precipitation” and the “Solubility (note on sample)” value ([4]; 1 mg/mL in vinyl-terminated polydimethylsiloxane) was “poor solubility, solution very cloudy and prone to precipitation”.
In the case of Pt(sal)2 [Example 3], the Stability in solvent [5] is reported as “not completely stable”, the Pt concentration ([6]; Acetone:MeCN (1:1)) is reported as 698 mg/L and the Pt concentration ([6]; Acetone) is reported as 646 mg/L. It also gave a Pt concentration ([6]; Chloroform) of 3260 mg/L, a Pt concentration ([6]; EtOH) of 103 mg/L and a Pt concentration ([6]; IPA) of 43.4 mg/L. It also gave a Pt concentration ([6]; MIBK) of 369 mg/L, a Pt concentration ([6]; MeCN:DMSO (80:20)) of 1220 mg/L and a Pt concentration ([6]; MeCN) of 588 mg/L. For the same compound, the Pt concentration ([6]; Toluene) was 346 mg/L, the Pt concentration ([6]; Water:MeCN (1:1)) was 167 mg/L and the Pt concentration ([6]; Water) was 42.1 mg/L. The “Thermal stability, stable up to” value [7] was “up to 200 °C”, the Time until gelling ([3]; dark, no irradiation, 25 μL of 5 mg in 1 mL dichloromethane) was 13,500 s and the Time until gelling ([3]; irradiated (60 s UV), 25 μL of 5 mg in 1 mL dichloromethane) was 165 s.
Work on Pt(sal)2 [Example 7] yielded a Time until gelling ([3]; after 60 s UV irradiation, 11 mg in 1 mL dichloromethane) of 208 s.
With Pt(sal)2 [Example 9] the Solubility ([4]; MeOH (washing)) was “only very slightly soluble”.
Pt(sal)2 [Solution D] gave a Gelling time [3, 8] of 1263 s, a Gelling time [3, 9] of 627 s and a Gelling time [3, 10] of 415 s. For the same compound, the Gelling time [3, 11] was 231 s and the Gelling time [3, 12] was 126 s.
